Source: ChEMBL document CHEMBL5537151, “Design, synthesis and bioactivity evaluation of novel fusion peptides and their CPT conjugates inducing effective anti-tumor responses on HER2 positive tumors” (Eur J Med Chem, 2024)
Peptide text beside a SMILES is read from it. * marks the point of attachment. X7 = CCC1(OC(=O)CCCCCN2C(=O)CC(SC[C@H](N)C(=O)*)C2=O)C(=O)OCc2c1cc1n(c2=O)Cc2cc3ccccc3nc2-1; X4 = CCC1(OC(=O)OCCSSC[C@H](N)C(=O)*)C(=O)OCc2c1cc1n(c2=O)Cc2cc3ccccc3nc2-1; X3 = CCC1(OC(=O)CCSSC[C@H](N)C(=O)*)C(=O)OCc2c1cc1n(c2=O)Cc2cc3ccccc3nc2-1; X6 = CCC1(OC(=O)OCCS*)C(=O)OCc2c1cc1n(c2=O)Cc2cc3ccccc3nc2-1

How the values were obtained:
[1] = test system: MDA-MB-231; experiment: cells; conditions: Homo sapiens, MDA-MB-231, 48 h
Description: Cytotoxicity against HER-negative human MDA-MB-231 cells incubated for 48 hrs by CCK-8 assay

[2] = Cytotoxicity against HER-negative human MCF-10A cells incubated for 48 hrs by CCK-8 assay; type: toxicity, cell-based
[3] = test system: SK-BR-3; experiment: cells; conditions: Homo sapiens, SK-BR-3, 48 h
Description: Cytotoxicity against HER-positive human SK-BR-3 cells incubated for 48 hrs by CCK-8 assay

[4] = test system: NCI-N87; experiment: cells; conditions: Homo sapiens, NCI-N87, 48 h
Description: Cytotoxicity against HER-positive human NCI-N87 cells incubated for 48 hrs by CCK-8 assay

[5] = test system: SK-OV-3; experiment: cells; conditions: Homo sapiens, SK-OV-3, 48 h
Description: Cytotoxicity against HER-positive human SK-OV-3 cells incubated for 48 hrs by CCK-8 assay

[6] = Toxicity in nude mouse xenografted with human SK-BR-3 cells assessed as change in globulin level at 8 umol/kg, iv administered every 3 days for 14 days; type: organism-based; conditions: in vivo, 336 h, dose 8 µmol/kg, time 14 day
[7] = test system: SK-BR-3; experiment: Induction of apoptosis in human SK-BR-3 cells assessed as live cells at 1 uM incubated for 24 hrs by Annexin V-FITC/PI staining based flow cytometry analysis (reference value: 94.6%); type: functional
[8] = test system: SK-BR-3; experiment: Induction of apoptosis in human SK-BR-3 cells assessed as early apoptotic cells at 1 uM incubated for 24 hrs by Annexin V-FITC/PI staining based flow cytometry analysis (reference value: 2.80%); type: functional
[9] = Toxicity in nude mouse xenografted with human SK-BR-3 cells assessed as increase in ALT level at 8 umol/kg, iv administered every 3 days for 14 days; type: organism-based; conditions: in vivo, 336 h, dose 8 µmol/kg, time 14 day
[10] = Toxicity in nude mouse xenografted with human SK-BR-3 cells assessed as change in total protein level at 8 umol/kg, iv administered every 3 days for 14 days; type: organism-based; conditions: in vivo, 336 h, dose 8 µmol/kg, time 14 day
[11] = test system: SK-BR-3; experiment: Induction of apoptosis in human SK-BR-3 cells assessed as late apoptotic cells at 1 uM incubated for 24 hrs by Annexin V-FITC/PI staining based flow cytometry analysis (reference value: 1.11%); type: functional
[12] = Toxicity in nude mouse xenografted with human SK-BR-3 cells assessed as increase in AST level at 8 umol/kg, iv administered every 3 days for 14 days; type: organism-based; conditions: in vivo, 336 h, dose 8 µmol/kg, time 14 day
[13] = Toxicity in nude mouse xenografted with human SK-BR-3 cells assessed as change in albumin level at 8 umol/kg, iv administered every 3 days for 14 days; type: organism-based; conditions: in vivo, 336 h, dose 8 µmol/kg, time 14 day
[14] = Toxicity in nude mouse xenografted with human SK-BR-3 cells assessed as change in alkaline phosphatase level at 8 umol/kg, iv administered every 3 days for 14 days; type: organism-based; conditions: in vivo, 336 h, dose 8 µmol/kg, time 14 day
[15] = test system: SK-BR-3; experiment: Induction of apoptosis in human SK-BR-3 cells assessed as necrotic cells at 1 uM incubated for 24 hrs by Annexin V-FITC/PI staining based flow cytometry analysis (reference value: 1.49%); type: functional

Row | IC50 [1] [µM] | IC50 [3] [µM] | IC50 [4] [µM] | IC50 [5] [µM] | Structure (SMILES) | IC50 at 48 h [2] [µM] | Activity [6] | Activity [7] [%] | Activity [8] [%] | Activity [9] | Activity [10] | Activity [11] [%] | Activity [12] | Activity [13] | Activity [14] | Activity [15] [%]
1 | 6.43 | 0.85 | 3.04 | 4.03 | CC[C@H](C)[C@H](NC(=O)[C@@H]1CCCN1C(=O)[C@@H](NC(=O)[C@H](C)N)C(C)C)C(=O)N[C@@H](C)C(=O)N[C@@H](CCC(N)=O)C(=O)N[C@@H](CCCCN)C(=O)NCC(=O)N[C@@H](Cc1ccccc1)C(=O)N[C@@H](CC(C)C)C(=O)NCC(=O)N[C@@H](CSSCCOC(=O)OC1(CC)C(=O)OCc2c1cc1n(c2=O)Cc2cc3ccccc3nc2-1)C(=O)N[C@@H](CC(N)=O)C(=O)N1CCC[C@H]1C(=O)N[C@@H](CC(N)=O)C(=O)N[C@@H](Cc1c[nH]c2ccccc12)C(=O)NCC(=O)N[C@@H](CCCNC(=N)N)C(=O)N[C@@H](CO)C(=O)N[C@@H](Cc1c[nH]c2ccccc12)C(=O)N[C@@H](Cc1ccc(O)cc1)C(=O)N[C@@H](CC(N)=O)C(=O)N[C@@H](CCC(N)=O)C(=O)N[C@@H](CCCNC(=N)N)C(=O)N[C@@H](Cc1ccccc1)C(=O)N[C@@H](CCCCN)C(N)=O (stereo not given in full) (H-AVPIAQKGFLGC(X6)NPNWGRSWYNQRFK-NH2) | 18.2 | – | – | – | – | – | – | – | – | – | –
2 | 15.1 | 2.3 | 8.01 | 4.73 | CC[C@H](C)[C@H](NC(=O)[C@@H]1CCCN1C(=O)[C@@H](NC(=O)[C@H](C)N)C(C)C)C(=O)N[C@@H](C)C(=O)N[C@@H](CCC(N)=O)C(=O)N[C@@H](CCCCN)C(=O)NCC(=O)N[C@@H](Cc1ccccc1)C(=O)N[C@@H](CC(C)C)C(=O)NCC(=O)N[C@@H](CC(N)=O)C(=O)N1CCC[C@H]1C(=O)N[C@@H](CC(N)=O)C(=O)N[C@@H](Cc1c[nH]c2ccccc12)C(=O)NCC(=O)N[C@@H](CCCNC(=N)N)C(=O)N[C@@H](CO)C(=O)N[C@@H](Cc1c[nH]c2ccccc12)C(=O)N[C@@H](Cc1ccc(O)cc1)C(=O)N[C@@H](CC(N)=O)C(=O)N[C@@H](CCC(N)=O)C(=O)N[C@@H](CCCNC(=N)N)C(=O)N[C@@H](Cc1ccccc1)C(=O)N[C@@H](CCCCNC(=O)[C@@H](N)CSSCCC(=O)OC1(CC)C(=O)OCc2c1cc1n(c2=O)Cc2cc3ccccc3nc2-1)C(N)=O (stereo not given in full) (H-AVPIAQKGFLGNPNWGRSWYNQRFK(X3)-NH2) | 28.4 | – | – | – | – | – | – | – | – | – | –
3 | 4.73 | 0.58 | 3.86 | 6.17 | CC[C@H](C)[C@H](NC(=O)[C@@H]1CCCN1C(=O)[C@@H](NC(=O)[C@H](C)N)C(C)C)C(=O)N[C@@H](C)C(=O)N[C@@H](CCC(N)=O)C(=O)N[C@@H](CCCCN)C(=O)NCC(=O)N[C@@H](Cc1ccccc1)C(=O)N[C@@H](CC(C)C)C(=O)NCC(=O)N[C@@H](CC(N)=O)C(=O)N1CCC[C@H]1C(=O)N[C@@H](CC(N)=O)C(=O)N[C@@H](Cc1c[nH]c2ccccc12)C(=O)NCC(=O)N[C@@H](CCCNC(=N)N)C(=O)N[C@@H](CO)C(=O)N[C@@H](Cc1c[nH]c2ccccc12)C(=O)N[C@@H](Cc1ccc(O)cc1)C(=O)N[C@@H](CC(N)=O)C(=O)N[C@@H](CCC(N)=O)C(=O)N[C@@H](CCCNC(=N)N)C(=O)N[C@@H](Cc1ccccc1)C(=O)N[C@@H](CCCCNC(=O)[C@@H](N)CSSCCOC(=O)OC1(CC)C(=O)OCc2c1cc1n(c2=O)Cc2cc3ccccc3nc2-1)C(N)=O (stereo not given in full) (H-AVPIAQKGFLGNPNWGRSWYNQRFK(X4)-NH2) | 15.2 | – | – | – | – | – | – | – | – | – | –
4 | 31.4 | 12.6 | 24.2 | > 50 | CC[C@H](C)[C@H](NC(=O)[C@@H]1CCCN1C(=O)[C@@H](NC(=O)[C@H](C)N)C(C)C)C(=O)N[C@@H](C)C(=O)N[C@@H](CCC(N)=O)C(=O)N[C@@H](CCCCN)C(=O)NCC(=O)N[C@@H](Cc1ccccc1)C(=O)N[C@@H](CC(C)C)C(=O)NCC(=O)N[C@@H](CC(N)=O)C(=O)N1CCC[C@H]1C(=O)N[C@@H](CC(N)=O)C(=O)N[C@@H](Cc1c[nH]c2ccccc12)C(=O)NCC(=O)N[C@@H](CCCNC(=N)N)C(=O)N[C@@H](CO)C(=O)N[C@@H](Cc1c[nH]c2ccccc12)C(=O)N[C@@H](Cc1ccc(O)cc1)C(=O)N[C@@H](CC(N)=O)C(=O)N[C@@H](CCC(N)=O)C(=O)N[C@@H](CCCNC(=N)N)C(=O)N[C@@H](Cc1ccccc1)C(=O)N[C@@H](CCCCNC(=O)[C@@H](N)CSC1CC(=O)N(CCCCCC(=O)OC2(CC)C(=O)OCc3c2cc2n(c3=O)Cc3cc4ccccc4nc3-2)C1=O)C(N)=O (stereo not given in full) (H-AVPIAQKGFLGNPNWGRSWYNQRFK(X7)-NH2) | > 50 | – | – | – | – | – | – | – | – | – | –

Row | Structure (SMILES) | IC50 [1] [µM] | IC50 [3] [µM] | IC50 [4] [µM] | IC50 [5] [µM] | IC50 at 48 h [2] [µM] | Activity [6] | Activity [7] [%] | Activity [8] [%] | Activity [9] | Activity [10] | Activity [11] [%] | Activity [12] | Activity [13] | Activity [14] | Activity [15] [%]
5 | CC[C@@]1(O)C(=O)OCc2c1cc1n(c2=O)Cc2cc3ccccc3nc2-1 [CAMPTOTHECIN] | 0.53 | 0.38 | 2.07 | 4.07 | 3.02 | Non-Toxic | 54.9 | 27.3 | Toxic | Non-Toxic | 16.9 | Toxic | Non-Toxic | Non-Toxic | 0.94
